Patent US7622269B2, “Methods of screening tyramine- and octopamine-expressing cells for compounds and compositions having potential insect control activity” (Tyratech, Inc., priority 2004, dated 2009)
Values joined by “and” are separate entries in the source; they are usually repeats but may differ in a detail not shown here. Equal entries are not always repeated.

Tests used:
[1] = molecular target: T1, Pa oa1 (Periplaneta americana, UniProt Q7YWB7); assay: Intracellular calcium (Fura-2) in HEK-293 cells expressing Pa oa1; type: cell-based
[2] = molecular target: T2, OAMB (Drosophila melanogaster, UniProt Q7JQF1, L268I/L487I/L521I/T180I); assay: Intracellular calcium (Fura-2) in HEK-293 cells expressing OAMB; conditions: 10 μM
Description: Cells are collected by scraping and are suspended at about 750,000 cells/ml in HBSS with about 5 μM Fura-2 AM (Sigma-Aldrich).

[3] = molecular target: T2, OAMB; assay: biochemical; type: binding; set-up: Oligonucleotides designed to amplify the open reading frame of Drosophila melanogaster OAMB; expressed in transfected cells
[4] = system: control HEK-293 cells; assay: cAMP levels in control HEK-293 cells transfected with pCDNA3 without insert; type: cell-based, human
Description: (§1) Twenty-four hours before cell treatment, about 300,000 HEK-293 cells are plated in about 1 ml media with about 0.8 mg G418/ml into multi-well dishes (e.g., 12-well, 4.5 cm^2). For cell treatment, the media is aspirated and about 1 ml PBS with about 300 μM IBMX and the test reagent is added. […] Cells are incubated with about 70% ethanol for about 1 h at about −20° C. The cellular debris is centrifuged and then the supernatant is removed and lyophilized to dryness. The amount of cAMP in the extract is determined by using a cAMP binding protein from the ^3H-cAMP Biotrak assay system (Amersham Biosciences) as per the manufacturer's instructions. To test the effects of calcium chelation on cAMP levels, the cells are incubated with about […] BAPTA/AM (Calbiochem Biochemicals, La Jolla, Calif.) for about 10 min before the addition of the test reagents.
To determine which second messenger signaling pathways octopamine could affect through the Pa oa1 receptor, HEK-293 cells are stably transfected with pCDNA3-Pa oa1 or pCDNA3 without an insert as a control.

[5] = system: control HEK-293 cells; assay: Intracellular calcium in control HEK-293 cells transfected with empty pCDNA3; type: cell-based, human
[6] = molecular target: T1, Pa oa1; assay: Competitive binding against 3H-yohimbine, Pa oa1 membranes
[7] = molecular target: T2, OAMB; assay: cAMP levels in HEK-293 cells expressing OAMB; type: cell-based; set-up: Oligonucleotides designed to amplify the open reading frame of Drosophila melanogaster OAMB; expressed in transfected cells; conditions: 10 μM
Description: (§2) To determine cAMP levels in cells, about 24-hours before cell treatment, 300,000 HEK-293 cells are plated in 1 mL media with 0.8 mg G418/mL into multi-dishes (4.5 cm2). For cell treatment, the media is aspirated and 1 mL PBS with 300 μM IBMX and the test reagent is added. Cells are incubated at 37° C. for 20 min, and the PBS is then aspirated. Cells are incubated with 70% ethanol for 1 hour at −20° C. The cellular debris is centrifuged and then the supernatant is removed and lyophilized to dryness. The amount of cAMP in the extract is determined by using a cAMP binding protein from the ^3H-cAMP Biotrak assay system (Amersham Biosciences, Piscataway, N.J.) as per the manufacturer's instructions.

[8] = molecular target: T1, Pa oa1; assay: cAMP levels in HEK-293 cells expressing Pa oa1; type: cell-based
Description: as §1, §2

T2 sequence (Q7JQF1 other isoform, or with tags, fused parts or gaps T180I/L268I/L487I/L524I): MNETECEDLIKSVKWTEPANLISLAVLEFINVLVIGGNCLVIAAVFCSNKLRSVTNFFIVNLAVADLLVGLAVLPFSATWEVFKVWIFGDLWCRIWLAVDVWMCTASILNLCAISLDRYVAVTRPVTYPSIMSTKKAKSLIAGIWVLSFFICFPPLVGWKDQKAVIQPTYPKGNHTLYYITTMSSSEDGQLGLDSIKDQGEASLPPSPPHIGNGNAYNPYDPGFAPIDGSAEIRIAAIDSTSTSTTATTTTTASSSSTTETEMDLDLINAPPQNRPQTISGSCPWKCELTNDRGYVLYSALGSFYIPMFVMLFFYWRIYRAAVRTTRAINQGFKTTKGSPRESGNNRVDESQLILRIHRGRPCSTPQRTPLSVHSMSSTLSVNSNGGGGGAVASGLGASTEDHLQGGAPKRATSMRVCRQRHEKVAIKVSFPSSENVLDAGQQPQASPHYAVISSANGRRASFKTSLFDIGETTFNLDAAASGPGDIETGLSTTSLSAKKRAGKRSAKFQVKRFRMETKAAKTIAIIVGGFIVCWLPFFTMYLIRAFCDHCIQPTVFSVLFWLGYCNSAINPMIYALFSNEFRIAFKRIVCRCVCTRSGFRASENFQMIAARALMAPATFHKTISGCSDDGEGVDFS
T1 sequence (Q7YWB7 entry or part of it): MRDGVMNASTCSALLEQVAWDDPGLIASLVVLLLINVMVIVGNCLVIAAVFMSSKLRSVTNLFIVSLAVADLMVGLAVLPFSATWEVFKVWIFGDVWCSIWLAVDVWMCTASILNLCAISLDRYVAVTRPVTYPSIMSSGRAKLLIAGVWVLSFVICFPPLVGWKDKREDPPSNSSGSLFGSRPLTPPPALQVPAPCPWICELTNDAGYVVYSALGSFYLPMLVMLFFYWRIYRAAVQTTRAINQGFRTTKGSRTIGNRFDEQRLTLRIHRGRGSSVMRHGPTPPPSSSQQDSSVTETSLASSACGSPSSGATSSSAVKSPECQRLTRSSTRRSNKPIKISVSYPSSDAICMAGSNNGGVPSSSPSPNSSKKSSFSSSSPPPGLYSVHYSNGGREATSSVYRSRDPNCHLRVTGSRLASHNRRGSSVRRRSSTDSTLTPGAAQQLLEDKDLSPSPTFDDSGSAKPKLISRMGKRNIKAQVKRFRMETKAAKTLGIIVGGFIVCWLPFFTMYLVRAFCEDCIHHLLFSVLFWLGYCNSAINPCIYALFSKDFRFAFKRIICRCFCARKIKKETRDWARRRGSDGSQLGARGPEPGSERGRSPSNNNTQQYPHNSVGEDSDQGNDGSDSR

Q: Which results are given for `NCC(O)c1ccc(O)cc1` (racemic) [Octopamine, DL-octopamine]?
A: lowest concentration that increases intracellular calcium levels [1]: about 10 nM; effect on level of [Ca2+]i ([1]; 10 μM): increases the level [Ca^2+]i; effect on intracellular calcium ([1]; about 100 nM): a rapid increase in intracellular calcium is detected; effect on level of [Ca2+]i [2]: increases the level [Ca^2+]i; Ki [3]: 8.2 µM; affinity of octopamine higher than tyramine ([3]; OAMB): about 4.1 fold; changes in cAMP level ([4]; 10 μM, empty vector): insignificant changes; effect on cAMP levels ([4]; up to about 100 μM): neither DL-octopamine nor tyramine at concentrations up to about 100 μM has significant effects on cAMP levels; changes in [Ca2+] ([5]; 10 μM, empty vector): insignificant changes; effect on intracellular calcium levels ([5]; about 10 μM): Neither about 10 μM octopamine nor about 10 μM tyramine modulates intracellular calcium levels; Ki ([6]; Table B, 4 nM 3H-yohimbine): 13.3 µM; Ki ([6]; about 2 nM 3H-yohimbine): ~13.3 µM and 13.3 µM; affinity of octopamine higher than tyramine ([6]; Pa oa1): about 2.3 fold; effect on level of cAMP [7]: increases the level of cAMP; effect on level of cAMP ([8]; 10 μM): increases the level of cAMP; EC50 ([8]; 300 μM IBMX, read-out: EC50 for increase in cAMP): ~1.62 µM; fold induction at 100 µM ([8]; HEK293, 20 min, about 100 μM amine, read-out: increase in cAMP): ~911; cAMP concentration ([8]; about 10 nM amine, basal about 0.48 pmol cAMP): about 1.2 pmol cAMP
